Data taken from article PMC10191551, “Safety, Tolerability, and Pharmacokinetics of Oral Ferric Maltol in Children With Iron Deficiency: Phase 1 Study” (JPGN Reports, 2021).

Assay: Phase 1 study: safety and tolerability (adverse events, vital signs, ECG, laboratory tests, compliance) of oral ferric maltol
Conditions: for Patients With an AE: Any AE: safety population
Description: This phase 1, randomized, open-label, parallel-group pharmacokinetic study involved children seen as outpatients at 6 centers in the UK: Alder Hey Children’s NHS Foundation Trust; King’s College Hospital NHS Foundation Trust; University Hospitals of Leicester NHS Trust; Nottingham University Hospitals NHS Trust; Manchester University NHS Foundation Trust; and University College London Hospitals NHS Foundation Trust. […] Children aged 16 years or older and parents or guardians of children younger than 16 years provided written informed consent to participate before study initiation.
Children aged 10–17 years with confirmed iron deficiency at screening (defined as either ferritin <30 µg/L or ferritin <50 µg/L with transferrin saturation [TSAT] <20%) were eligible for inclusion in the study. Patients with or without anemia could be enrolled, provided hemoglobin was ≥8.5 g/dL at screening. Girls of childbearing potential had to agree to use adequate contraception during and until 4 weeks after the end of the study.
The study comprised a screening period followed by a 10-day randomized treatment period and a post-treatment safety follow-up. Children were randomized 1:1:1 (stratified by age [10–14 vs 15–17 years] and sex) to ferric maltol 7.8 mg, 16.6 mg, or 30 mg twice daily (b.d.) for 9 days and once in the morning of day 10. The first and last doses of ferric maltol were taken in the presence of the investigator. Children took each dose with a glass of water 1 hour before or 2 hours after a meal. Doses were based on daily elemental iron requirements for the broad range of body weights of participants likely to be enrolled, with the aim of finding a minimum effective dose in this age group. The 30 mg b.d. adult dosage was chosen as the highest exposure; dosages of 16.6 mg b.d. and 7.8 mg b.d. were chosen as approximately one-half and one-quarter of the adult dose, respectively, with the exact dose depending on the full fill of available capsule shell sizes.
The primary objectives were to assess iron uptake and ferric maltol pharmacokinetics. Serum iron and TSAT provided measures of iron uptake. In adults, dissociated maltol undergoes rapid glucuronidation and is cleared in urine as maltol glucuronide (36); therefore, in this study, plasma maltol glucuronide was measured to confirm the rate of clearance in children. The secondary objective was to assess the safety and tolerability of ferric maltol in terms of vital signs, AEs, concomitant medications, 12-lead electrocardiograms, and clinical laboratory blood tests.
Safety analyses were conducted in all patients who received at least 1 dose of the study medication and had at least 1 subsequent visit (the safety population). […] Clinically significant changes from baseline in vital signs, physical examination, and routine clinical laboratory abnormalities were also recorded.

Cc1occc(=O)c1[O-].Cc1occc(=O)c1[O-].Cc1occc(=O)c1[O-].[Fe+3] [Ferric maltol]
Patients with a TEAE: Papule (30 mg b.d. (n = 12)): 1 (8.3) n (%)
Patients with a TEAE: Pyrexia (30 mg b.d. (n = 12)): 1 (8.3) n (%)
Patients with a TEAE: Skin abrasion (30 mg b.d. (n = 12)): 0 (0.0) n (%)
Patients with a TEAE: Sneezing (30 mg b.d. (n = 12)): 0 (0.0) n (%)
Patients with a TEAE: Tonsillitis (30 mg b.d. (n = 12)): 0 (0.0) n (%)
Patients with a TEAE: Vomiting (30 mg b.d. (n = 12)): 0 (0.0) n (%)
TEAEs by system organ class: Cardiac disorders (30 mg b.d. (n = 12)): 0 (0.0) n (%)
TEAEs by system organ class: Gastrointestinal disorders (30 mg b.d. (n = 12)): 6 (50.0) n (%)
TEAEs by system organ class: General disorders and administration-site conditions (30 mg b.d. (n = 12)): 2 (16.7) n (%)
TEAEs by system organ class: Injury, poisoning, and procedural complications (30 mg b.d. (n = 12)): 1 (8.3) n (%)
TEAEs by system organ class: Neoplasms benign, malignant, and unspecified (30 mg b.d. (n = 12)): 0 (0.0) n (%)
TEAEs by system organ class: Nervous system disorders (30 mg b.d. (n = 12)): 5 (41.7) n (%)
TEAEs by system organ class: Respiratory, thoracic, and mediastinal disorders (30 mg b.d. (n = 12)): 1 (8.3) n (%)
TEAEs by system organ class: Skin and subcutaneous-tissue disorders (30 mg b.d. (n = 12)): 1 (8.3) n (%)
Patients With an AE: Any AE (30 mg b.d. (n = 12)): 7 (58.3) n (%)
Patients With an AE: Any SAE (Total, all doses (N = 37)): 0 (0.0) n (%)
Patients With an AE: Any TEAE (Total, all doses (N = 37)): 20 (54.1) n (%)
Patients With an AE: TEAE leading to study discontinuation (Total, all doses (N = 37)): 1 (2.7) n (%)
Patients With an AE: TEAE related to study drug (Total, all doses (N = 37)): 9 (24.3) n (%)
Patients with a TEAE: Abdominal distension (Total, all doses (N = 37)): 1 (2.7) n (%)
Patients with a TEAE: Abdominal pain (Total, all doses (N = 37)): 1 (2.7) n (%)
Patients with a TEAE: Anal incontinence (Total, all doses (N = 37)): 1 (2.7) n (%)
Patients with a TEAE: Cellulitis (Total, all doses (N = 37)): 1 (2.7) n (%)
Patients with a TEAE: Constipation (Total, all doses (N = 37)): 1 (2.7) n (%)
Patients with a TEAE: Cough (Total, all doses (N = 37)): 2 (5.4) n (%)
Patients with a TEAE: Diarrhea (Total, all doses (N = 37)): 3 (8.1) n (%)
Patients with a TEAE: Dizziness (Total, all doses (N = 37)): 3 (8.1) n (%)
Patients with a TEAE: Dyspepsia (Total, all doses (N = 37)): 1 (2.7) n (%)
Patients with a TEAE: Dyspnea (Total, all doses (N = 37)): 1 (2.7) n (%)
Patients with a TEAE: Fatigue (Total, all doses (N = 37)): 4 (10.8) n (%)
Patients with a TEAE: Feces discolored (Total, all doses (N = 37)): 5 (13.5) n (%)
Patients with a TEAE: Granuloma skin (Total, all doses (N = 37)): 1 (2.7) n (%)
Patients with a TEAE: Headache (Total, all doses (N = 37)): 7 (18.9) n (%)
Patients with a TEAE: Injection-site pain (Total, all doses (N = 37)): 1 (2.7) n (%)
Patients with a TEAE: Lethargy (Total, all doses (N = 37)): 1 (2.7) n (%)
Patients with a TEAE: Ligament sprain (Total, all doses (N = 37)): 1 (2.7) n (%)
Patients with a TEAE: Lip dry (Total, all doses (N = 37)): 1 (2.7) n (%)
Patients with a TEAE: Nasal congestion (Total, all doses (N = 37)): 1 (2.7) n (%)
Patients with a TEAE: Nasopharyngitis (Total, all doses (N = 37)): 1 (2.7) n (%)
Patients with a TEAE: Nausea (Total, all doses (N = 37)): 2 (5.4) n (%)
Patients with a TEAE: Nevus hemorrhage (Total, all doses (N = 37)): 1 (2.7) n (%)
Patients with a TEAE: Palpitations (Total, all doses (N = 37)): 1 (2.7) n (%)
Patients with a TEAE: Papule (Total, all doses (N = 37)): 1 (2.7) n (%)
Patients with a TEAE: Pyrexia (Total, all doses (N = 37)): 1 (2.7) n (%)
Patients with a TEAE: Skin abrasion (Total, all doses (N = 37)): 1 (2.7) n (%)
Patients with a TEAE: Sneezing (Total, all doses (N = 37)): 1 (2.7) n (%)
Patients with a TEAE: Tonsillitis (Total, all doses (N = 37)): 1 (2.7) n (%)
Patients with a TEAE: Vomiting (Total, all doses (N = 37)): 2 (5.4) n (%)
TEAEs by system organ class: Cardiac disorders (Total, all doses (N = 37)): 1 (2.7) n (%)
TEAEs by system organ class: Gastrointestinal disorders (Total, all doses (N = 37)): 12 (32.4) n (%)
TEAEs by system organ class: General disorders and administration-site conditions (Total, all doses (N = 37)): 5 (13.5) n (%)
TEAEs by system organ class: Injury, poisoning, and procedural complications (Total, all doses (N = 37)): 2 (5.4) n (%)
TEAEs by system organ class: Neoplasms benign, malignant, and unspecified (Total, all doses (N = 37)): 1 (2.7) n (%)
TEAEs by system organ class: Nervous system disorders (Total, all doses (N = 37)): 9 (24.3) n (%)
TEAEs by system organ class: Respiratory, thoracic, and mediastinal disorders (Total, all doses (N = 37)): 4 (10.8) n (%)
TEAEs by system organ class: Skin and subcutaneous-tissue disorders (Total, all doses (N = 37)): 2 (5.4) n (%)
Patients With an AE: Any AE (Total, all doses (N = 37)): 21 (56.8) n (%)
Changes from baseline in vital signs or 12-lead electrocardiogram results (all doses): No clinically meaningful changes
Patients with laboratory abnormalities considered as TEAEs or SAEs (all doses): No patients
Children who experienced a TEAE (all doses, N = 37): 54%
Children with a TEAE related to the study drug (all doses, N = 37): 24%
Deaths or SAEs (all doses, N = 37): no deaths or SAEs
Drug-related TEAE anal incontinence (all doses, N = 37): 1 patient
Drug-related TEAE constipation (all doses, N = 37): 1 patient
Drug-related TEAE diarrhea (all doses, N = 37): 2 n
Drug-related TEAE dizziness (all doses, N = 37): 2 n
Drug-related TEAE dyspepsia (all doses, N = 37): 1 patient
Drug-related TEAE dyspnea (all doses, N = 37): 1 patient
Drug-related TEAE fatigue (all doses, N = 37): 2 n
Drug-related TEAE feces discoloration (all doses, N = 37): 5 n
Drug-related TEAE headache (all doses, N = 37): 3 n
Drug-related TEAE lethargy (all doses, N = 37): 1 patient
Drug-related TEAE nausea (all doses, N = 37): 1 patient
Drug-related TEAE palpitations (all doses, N = 37): 1 patient
Drug-related TEAE papule (all doses, N = 37): 1 patient
Gastrointestinal TEAEs, overall (all doses, N = 37): 32%
Nervous system disorders TEAEs, overall (all doses, N = 37): 24%
TEAE abdominal distension, number of children (all doses, N = 37): 1 n
TEAE abdominal pain, number of children (all doses, N = 37): 1 n
TEAE anal incontinence, number of children (all doses, N = 37): 1 n
TEAE constipation, number of children (all doses, N = 37): 1 n
TEAE diarrhea, number of children (all doses, N = 37): 3 n
TEAE dizziness, number of children (all doses, N = 37): 3 n
TEAE dyspepsia, number of children (all doses, N = 37): 1 n
TEAE fecal discoloration, number of children (all doses, N = 37): 5 n
TEAE headache, number of children (all doses, N = 37): 7 n
TEAE lethargy, number of children (all doses, N = 37): 1 n
TEAE nausea, number of children (all doses, N = 37): 2 n
TEAE vomiting, number of children (all doses, N = 37): 2 n
Children who experienced a TEAE (all doses, N = 37, listed as ferric maltol): 54.1%
Severity of TEAEs (all doses, all recovered or resolved): mild or moderate
